By EC50 is commonly meant the midpoint of the concentration-response curve.

The subject of this assay is C. elegans N2 L1 growth, INVAPP movement imaging, 5 d. Put plainly: C. elegans larval growth inhibition, dose response, whole organism, N2 L1 worms, INVAPP movement imaging (AID 1259352).
`COCCNc1nc(NCCOc2ccccc2Cl)c2sccc2n1`: the concentration giving a half-maximal response (EC50) is 87 µM. As to `COc1ccccc1CNc1nc(NCCOc2ccccc2Cl)c2sccc2n1`, the EC50 is 7 µM. On to `CNc1nc(NCCOc2ccccc2)c2sccc2n1`, for which the concentration for a half-maximal effect (EC50) was 82 µM. With `CNc1nc(NCCOc2ccccc2Cl)c2sccc2n1`, the EC50 was 11 µM.
